Values after ≈ are worked out from the molar mass of the structure shown. Where two headings read alike, the source gives them in different places.
Experiments:
K. pneumoniae = experiment: Susceptibility testing (MIC, modified NCCLS method); format: cell-based, Klebsiella pneumoniae; details: K. pneumoniae (5)
In short: (§1)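 Readout OD600 increase. Compounds (aqueous or DMSO stocks) serially diluted 2-fold across 20 concentrations, then inoculated with bacterial broth culture to final ~1-1.5×10^6 cells/ml; screening-adapted NCCLS microdilution.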

P. aeruginosa = experiment: as above; format: cell-based, Pseudomonas aeruginosa
In short: as §1

M. catarrhalis = experiment: as above; format: cell-based, Moraxella catarrhalis; details: M. catarrhalis (4)
Method: (§2) The NCCLS (National Committee for Clinical Laboratory Standards) method to determine MIC's of antimicrobial compounds was modified for high-throughput screening. All stocks of tested compounds were prepared in either water or in dimethylsulfoxide (DMSO), depending on the solubility. […] Briefly 20 2-fold serial dilutions of testing compounds from the highest concentration were made in a 384-well microtiter plate. Each well was inoculated with testing bacteria in broth to a final concentration of approximately 1-1.5×10^6 cells/ml. Bacterial growth was determined by the increase of optical density at 600 nm using a microplate reader (Tecan SpectraFluor Plus).

H. influenzae = experiment: as above; format: cell-based, Haemophilus influenzae; details: H. influenzae (4)
Method: as §2

E coli R(Tem1) = experiment: Inhibition of bacterial growth (IC50, OD600); format: cell-based; details: for IC50 ratio N/R: N versus R (Tem1); for IC50: Escherichia coli
Method: (§3) Compounds of the invention were tested for their ability to inhibit the growth of β-lactam sensitive and resistant bacteria by contacting samples of such cells with various dilutions of the compositions, incubating the cells at 37° C. in the presence of these compositions and then measuring the number of viable cells present in each sample.
(§4) Two compounds of the invention were tested, Compound (9) and Compound (1l). Incubation of bacterial cells was performed for two time periods, 10 hours and 20 hours. Four E. coli strains were used for the test. These strains were all derived from the strain NovaBlue (NovaGen Inc., Madison, Wis.). E. coli N is a normal, β-lactam sensitive strain. E coli R(Tem1) is a β-lactam resistant strain with a β-lactamase gene on a plasmid. E. coli C(Tem4O-15) is a β-lactam resistant strain with a β-lactam inhibitor resistant β-lactamase gene, and E. coli C(Tem3 1-27) is β-lactam resistant strain with an alternative β-lactam inhibitor resistant β-lactamase gene.
(§5) The various E. coli strains were each treated with dilutions of the compounds of the invention. […] The number of viable cells at each time point was determined by measuring the OD600 of each cell sample.
(§6) After measuring the number of viable cells present, the IC50 for each sample was determined. […] In addition, both compounds were effective at inhibiting the growth of both antibiotic sensitive and resistant bacterial cells.

E. coli C(Tem3 1-27) = experiment: Inhibition of bacterial growth (IC50, OD600); format: cell-based; details: for IC50: Escherichia coli
Method: as §3, §4, §5, §6

E. coli C(Tem4O-15) = experiment: Inhibition of bacterial growth (IC50, OD600); format: cell-based; details: for IC50: Escherichia coli
Method: as §3, §4, §5, §6

E. coli N = experiment: Inhibition of bacterial growth (IC50, OD600); format: cell-based; details: Escherichia coli
Method: as §3, §4, §5, §6

TEM-1 β-lactamase = molecular target: T1, TEM-1 β-lactamase (Escherichia coli, UniProt P62593); format: biochemical; details: 20 minutes, […] TEM-1, 4 μM solution of Compound (9)
T1 construct: His tag (N); made in house; host or cells: Escherichia coli BL21(DE3)
Method: Assays were conducted at 37° C. in 100 mM potassium phosphate buffer pH 7.2 with 1 mM EDTA and 0.5 μg/ml TEM-1 β-lactamase. […] Hydrolysis product (triclosan) was separated from Compound (9) by use of an HP1100 series HPLC equipped with an Alltech Adsorbosphere HS(C18)5u 150 mm×4.6 mm column. The mobile phase was isocratic containing 55% acetonitrile and 0.1% TFA producing retention times of 20.4 minutes and 24.1 minutes for triclosan and Compound (9), respectively. Quantitation of triclosan was based on the A260 integrated peak area as compared to triclosan standards.
A typical TEM-1 β-lactamase assay is conducted at 37° C. in 1.4 ml of 100 mM potassium phosphate pH 7.2, 1 mM; ethylenediamine tetraacetic acid (EDTA) and 25 nM TEM-1 β-lactamase. A test compound is assayed at several concentrations, for example at 5 and 20 μM. […] Substrates and products are separated and quantitated via HPLC (described below). […]
Kinetic parameters of test compounds (kcat and Km) are determined from a simultaneous progress curve analysis of substrate consumption and product formation (when both are observable) as fit to the equations: […]
Hydrolysis product (triclosan) was separated from Compound (9) by use of an HP1100 series HPLC equipped with an Alltech Adsorbosphere HS(C18)5μ150 mm×4.6 mm column. […] Quantitation of triclosan was based on the A260 integrated peak area as compared to triclosan standards.

E. coli/TEM-1 = experiment: Detection of triclosan released from Compound (9) in bacteria; format: cell-based, Escherichia coli; details: E. coli/TEM-1, after five minutes, 100 μM Compound (9)
Method: E coli N and β-lactamase expressing E. coli/TEM-1 were treated with Compound (9) under the condition described in Example 15. Aliquots of culture were sampled at 0, 5 and 15 minutes. The amount of Compound (9) and triclosan were analyzed by HPLC.
Overnight cultures of both wild-type Escherichia coli N and β-lactamase producing strain Escherichia coli/TEM-1 were diluted 100 times with fresh LB medium and cells were grown for 4 hours at 37° C. (shaking at 230 rpm). Cells were then diluted with fresh LB medium containing 100 μM Compound (9) until the OD600 reached 0.2. Aliquots of the culture were sampled at different timed intervals and the cells were pelleted by centrifugation at 10,000×g for 2 minutes at 4° C. The supernatant was removed and combined with 500 μl acetonitrile. The pelleted bacterial cells were resuspended in 100 μl 133 Phosphate Buffer (GIBCO-BRL, pH8.0) and subjected to 3 cycles of freeze-thawing, followed by addition of 500 μl acetonitrile. Both pellet extracts and supernatant were centrifuged at 10,000×g for 2 minutes at 4° C. 550 μl of the resultant supernatant was transferred into a new Eppendorf tube and vacuum-dried. Dried pellets were resuspended in 50 μl H2O and 100 μl acetonitrile, 75 μl of which was analyzed by HPLC.

[1] = system: UDP-glucuronosyltransferase; experiment: Glucuronidation assay; format: in vitro ADME, human
Method: Assays were conducted as outlined in Example 15, using 100 μM Compound (9), triclosan or cephalothin incubated with 100 μg human liver microsome at 37° C. for 1 hour. The reactants were analyzed on TLC plate, and glucuronidated compounds were visualized by MolecularDynamics Storm 820.
Glucuronidation assay was performed based on modified procedure from Bansal and Gessner (1980) Anal. Biochem. 109:321-329. Reactions were performed in 50 mM Tris buffer, pH 7.6, containing 10 mM MgCl2, ImM UDPGA, 0.04 μCi of ^14C-UDPGA, 0.1 mM substrate, and 100 μg human liver microsome. The final volume was 100 μL. Reactions were incubated at 37° C. for one hour and the reactants extracted with 200 μL of 100% ethanol. The protein was removed by centrifugation at 12,000×g for 5 minutes in an Eppendorf centrifuige. The supernatant was dried and resuspended in 30 μL of 100% methanol and spotted on a Whatman glass-backed linear k TLC plate. Chromatography was performed in a mixture of 1-butanol/acetone/acetic acid/water (35:35:10:20). The TLC plate was then dried and exposed to phosphor imager overnight, then monitored by imaging (MolecularDynamics Storm 820).

T1 sequence (P62593 24-286 limits assumed): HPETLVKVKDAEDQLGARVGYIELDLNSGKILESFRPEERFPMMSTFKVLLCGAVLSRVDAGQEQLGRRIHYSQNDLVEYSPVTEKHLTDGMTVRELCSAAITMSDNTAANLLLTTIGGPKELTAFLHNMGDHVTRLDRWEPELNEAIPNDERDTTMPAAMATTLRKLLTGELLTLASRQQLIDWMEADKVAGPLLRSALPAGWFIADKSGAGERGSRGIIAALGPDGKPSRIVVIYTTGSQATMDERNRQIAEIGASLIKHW

O=C(Cc1cccs1)N[C@@H]1C(=O)N2C(C(=O)O)=C(COc3cc(Cl)ccc3Oc3ccc(Cl)cc3Cl)CS[C@H]12 [Compound 9, 3-(2-(2,4-Dichlorophenoxy)-5-chlorophenoxy)methyl-7-(2-thienylacetamido)-3-cephem-4-carboxylic acid]
MIC range (K. pneumoniae): 980 to 3910 ng/mL | MIC (K. pneumoniae; Klebsiella pneumoniae, read-out: GM* MIC (geometric mean)): 1960 ng/mL (≈ 3130 nM) | activity against P. aeruginosa (P. aeruginosa): no activity | MIC range (P. aeruginosa; P. aeruginosa (7)): >15600 ng/mL | MIC (P. aeruginosa; Pseudomonas aeruginosa, P. aeruginosa (7), read-out: GM* MIC (geometric mean)): > 15600 ng/mL | MIC range (M. catarrhalis): 0.015 to 31 ng/mL | MIC (M. catarrhalis; Moraxella catarrhalis, read-out: GM* MIC (geometric mean)): 0.18 ng/mL (≈ 0.288 nM) | MIC range (H. influenzae): 7.5 to 61 ng/mL | MIC (H. influenzae; Haemophilus influenzae, read-out: GM* MIC (geometric mean)): 15 ng/mL (≈ 24 nM) | IC50 ratio N/R (E coli R(Tem1); 10 hours): N/R = 1969x | IC50 ratio N/R (E coli R(Tem1); 20 hours): N/R = 10x | IC50 (E coli R(Tem1); 10 h, read-out: IC50 10 hours, Cell R (Tem1), 10 hours): 0.096 nM | IC50 (E coli R(Tem1); 20 h, read-out: IC50 20 hours, Cell R (Tem1), 20 hours): 4.13 nM | IC50 ratio (C/R or N/C) (E. coli C(Tem3 1-27); 10 hours, line of C (Tem31-27)): C/R = 90x | IC50 ratio (given C/R or N/R) (E. coli C(Tem3 1-27); 20 hours, line of C (Tem31-27)): C/R = 2x | IC50 (E. coli C(Tem3 1-27); 10 h, read-out: IC50 10 hours): 2.09 nM | IC50 (E. coli C(Tem3 1-27); 20 h, read-out: IC50 20 hours): 21 nM | IC50 ratio (C/R or N/C) (E. coli C(Tem4O-15); 10 hours, line of C (Tem40-15)): C/R = 117x | IC50 ratio (given C/R or N/R) (E. coli C(Tem4O-15); 20 hours, line of C (Tem40-15)): C/R = 2.3x | IC50 (E. coli C(Tem4O-15); 10 h, read-out: IC50 10 hours): 1.62 nM | IC50 (E. coli C(Tem4O-15); 20 h, read-out: IC50 20 hours): 18.3 nM | IC50 (E. coli N; 10 h, read-out: IC50 10 hours, Cell N, 10 hours, 37° C.): 189 nM | IC50 (E. coli N; 20 h, read-out: IC50 20 hours, Cell N, 20 hours): 42.4 nM | converted to triclosan (TEM-1 β-lactamase): ~90% | Compound (9) hydrolyzed producing an equimolar amount of triclosan (E. coli/TEM-1): approximately 80% | glucuronidation by human liver microsome [1]: not a substrate of UDP-glucuronosyltransferase

— US20020115642A1, “Beta-lactam antibiotics” (priority 2000, published 2002)
